Values joined by “and” are separate entries in the source; they are usually repeats but may differ in a detail not shown here. Identical values can stand only once.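 All cell lines were grown in 96-well plates and treated with compound for 48 hours. The concentration for 50% growth inhibition is given as GI50. The concentration for full growth arrest is given as TGI.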
Test system: RPMI-8226 leukemia
Assay: NCI-60 cell line screen, 48 h

Compound | GI50 | TGI
NC(CSC(c1ccccc1)(c1ccccc1)c1ccc2c(c1)OCO2)C(=O)O (stereo not drawn) | 0.306 µM | 3.77 µM
O=C(NCCNc1nccc(-c2c(-c3cccc(O)c3)nc3sccn23)n1)c1ccccc1O | 2.27 µM | 10.8 µM
C[C@@H](CS(C)(=O)=O)Nc1ncc2cc(Oc3ccc(F)cc3F)c(=O)n(C)c2n1 | > 25 µM | > 25 µM
CC(C)=CCCc1c(C)ccc2c1C(=O)C(=O)C(C(C)C)=C2 |  | 6.16 µM
CCOC(=O)Nc1nc2ccc(OCC)cc2s1 | 27.1 µM | > 100 µM
NS(=O)(=O)c1ccccc1C(=O)N/N=C(\c1nc2ccc([N+](=O)[O-])cc2[nH]c1=O)C(O)c1ccc([N+](=O)[O-])cc1 (stereo not drawn) |  | > 100 µM
COC(=O)[C@@H](C)C[C@H](Cc1ccc(F)cc1)NC(=O)c1csc([C@@H](C[C@H](C(C)C)N(C)C(=O)[C@@H](NC(=O)[C@H]2CCCCN2C)C(C)C)OC(C)=O)n1 | 0.00108 µM and 0.00682 µM | > 16.7 µM
N#CC(C#N)=c1ccc(=C2NCC3CCCN23)cc1 (stereo not drawn) |  | > 100 µM
COc1ccc2c(c1)C(=O)/C(=C/c1ccc(OCC(=O)Nc3nccs3)cc1)O2 | 0.439 µM | 4.56 µM
COC(=O)[C@@]12C3=NO[C@]1(C(=O)OC)C(O[Si](C)(C)C(C)(C)C)[C@H]1OC(C)(C)O[C@H]1[C@@H]2C(OCc1ccccc1)CC3 (stereo partly drawn) |  | > 100 µM
COc1c2ccoc2c(/C=C/C=O)c2oc(-c3ccccc3)cc(=O)c12 | 2.24 µM | 5.81 µM
Nc1cc2nc3ccccc3sc-2cc1=O | 2.54 µM | 26.4 µM
CN(CC(=O)O)S(=O)(=O)c1ccc2ccccc2c1 |  | > 100 µM
CCN(CC)CC(C(=O)Nc1c(C)cccc1C)/C(C)=N\NC(=O)C[N+](C)(C)C (stereo not drawn) |  | > 100 µM
CC1=C(C(=O)Nc2ccccc2C)C(c2ccco2)C(C(=O)Nc2ccccc2C)=C(C)N1C |  | > 100 µM
CC(=O)OC(C)C(=O)C1c2cccc(O)c2C(=O)c2c(O)cc(C)cc21 (stereo not drawn) |  | 5.98 µM
O=[S@@]1Nc2ccc(Br)cc2S1 |  | > 100 µM
O=C1NNC(=O)c2ccccc2SSc2ccccc2C(=O)NNC(=O)c2ccccc2SSc2ccccc21 |  | 50 µM
COc1ccc2c(c1)C1(C=N2)CCN(C(C)=O)CC1 |  | > 100 µM
CCOC(=O)C1=C(C)CC2C(=O)OC(=O)C2C1(C)C (stereo not drawn) |  | > 100 µM
Fc1ccc(Nc2ncnc3ccc(-c4cnc5[nH]ccc5c4)cc23)cc1Cl | 3.09 µM | > 100 µM
Oc1ccc(Cl)cc1-c1cc(-c2ccccc2Cl)[nH]n1 | 3.15 µM | > 100 µM
CCOC(=O)C(Sc1ccccc1)c1c(OC)cc(=O)oc1/C=[N+](/[O-])c1ccc(N(C)C)cc1 (stereo not drawn) |  | 48 µM
O=C(O)C(Cc1ccccc1)N1C(=O)N/C(=C\c2ccc(F)cc2)C1=O (stereo not drawn) |  | > 100 µM
COc1ccc(C2=CSc3cc(Cl)c(C)cc3S(=O)(=O)N2C(C)=O)cc1 | 26 µM | 94 µM
COc1cccc(NC(=O)CC(=O)n2nc(C)c(N=Nc3ccccc3)c2C)c1 |  | > 100 µM
CC(=O)[O][Hg][c]1c(N)c(C)cc(C)c1F | 1.81 µM | 6 µM
O=C(O)CCSC(=O)Nc1cccc(F)c1 |  | > 100 µM
CCNC1C2(CCCCC2)NC(=O)C12CCCCC2 (stereo not drawn) |  | > 100 µM
c1cc2c(cc1NC1=NCCO1)CCC2 |  | > 10 µM

Test system: NCI-H460 lung
Assay: NCI-60 cell line screen, 48 h

Compound | GI50 | TGI
NC(CSC(c1ccccc1)(c1ccccc1)c1ccc2c(c1)OCO2)C(=O)O (stereo not drawn) | 0.375 µM | > 40 µM
C=CCc1cc(OC)c2c(c1)C(O)CC(c1ccc(OC)c(OC)c1)O2 (stereo not drawn) |  | > 100 µM
O=C(NCCNc1nccc(-c2c(-c3cccc(O)c3)nc3sccn23)n1)c1ccccc1O | 4.16 µM | 19.6 µM
C[C@@H](CS(C)(=O)=O)Nc1ncc2cc(Oc3ccc(F)cc3F)c(=O)n(C)c2n1 | > 25 µM | > 25 µM
CC(C)=CCCc1c(C)ccc2c1C(=O)C(=O)C(C(C)C)=C2 |  | > 22 µM
CCOC(=O)Nc1nc2ccc(OCC)cc2s1 | 6.28 µM | > 100 µM
NS(=O)(=O)c1ccccc1C(=O)N/N=C(\c1nc2ccc([N+](=O)[O-])cc2[nH]c1=O)C(O)c1ccc([N+](=O)[O-])cc1 (stereo not drawn) |  | > 100 µM
COC(=O)[C@@H](C)C[C@H](Cc1ccc(F)cc1)NC(=O)c1csc([C@@H](C[C@H](C(C)C)N(C)C(=O)[C@@H](NC(=O)[C@H]2CCCCN2C)C(C)C)OC(C)=O)n1 | 0.000678 µM and 0.0063 µM | > 16.7 µM
N#CC(C#N)=c1ccc(=C2NCC3CCCN23)cc1 (stereo not drawn) |  | > 100 µM
COc1ccc2c(c1)C(=O)/C(=C/c1ccc(OCC(=O)Nc3nccs3)cc1)O2 | 15.5 µM | 34.4 µM
O=[N+]([O-])c1cnc(Sc2ccncn2)s1 | 8.12 µM | 25.9 µM
COC(=O)[C@@]12C3=NO[C@]1(C(=O)OC)C(O[Si](C)(C)C(C)(C)C)[C@H]1OC(C)(C)O[C@H]1[C@@H]2C(OCc1ccccc1)CC3 (stereo partly drawn) |  | 23.7 µM
COc1c2ccoc2c(/C=C/C=O)c2oc(-c3ccccc3)cc(=O)c12 | 11.3 µM | 61.4 µM
Nc1cc2nc3ccccc3sc-2cc1=O | 2.9 µM | 10.2 µM
CN(CC(=O)O)S(=O)(=O)c1ccc2ccccc2c1 |  | > 100 µM
CCN(CC)CC(C(=O)Nc1c(C)cccc1C)/C(C)=N\NC(=O)C[N+](C)(C)C (stereo not drawn) |  | > 100 µM

Compound | GI50 | TGI
CC1=C(C(=O)Nc2ccccc2C)C(c2ccco2)C(C(=O)Nc2ccccc2C)=C(C)N1C |  | > 100 µM
COc1cc2nc(-c3ccc(C(F)(F)F)cc3)cc(OCCCN3CCC(O)CC3)c2cc1OC | 0.835 µM | 16 µM
CC(=O)OC(C)C(=O)C1c2cccc(O)c2C(=O)c2c(O)cc(C)cc21 (stereo not drawn) |  | 1.35 µM
O=C1NNC(=O)c2ccccc2SSc2ccccc2C(=O)NNC(=O)c2ccccc2SSc2ccccc21 | 31 µM | 50 µM and > 100 µM
COc1ccc2c(c1)C1(C=N2)CCN(C(C)=O)CC1 |  | > 100 µM
CCOC(=O)C1=C(C)CC2C(=O)OC(=O)C2C1(C)C (stereo not drawn) |  | > 100 µM
Fc1ccc(Nc2ncnc3ccc(-c4cnc5[nH]ccc5c4)cc23)cc1Cl | 1.83 µM | 4.06 µM
Oc1ccc(Cl)cc1-c1cc(-c2ccccc2Cl)[nH]n1 | 3.47 µM | > 100 µM
CCOC(=O)C(Sc1ccccc1)c1c(OC)cc(=O)oc1/C=[N+](/[O-])c1ccc(N(C)C)cc1 (stereo not drawn) |  | 82.5 µM
COc1ccc2nc3cc(Cl)ccc3c(Sc3ccccc3[N+](=O)[O-])c2c1 |  | > 100 µM
O=C(O)C(Cc1ccccc1)N1C(=O)N/C(=C\c2ccc(F)cc2)C1=O (stereo not drawn) |  | > 100 µM
COc1ccc(C2=CSc3cc(Cl)c(C)cc3S(=O)(=O)N2C(C)=O)cc1 | 29 µM | 99.5 µM
CC(=O)[O][Hg][c]1c(N)c(C)cc(C)c1F | 1.74 µM | 4.3 µM
O=C(O)CCSC(=O)Nc1cccc(F)c1 |  | > 100 µM
CCNC1C2(CCCCC2)NC(=O)C12CCCCC2 (stereo not drawn) |  | > 100 µM

Test system: A498 renal
Assay: NCI-60 cell line screen, 48 h

Compound | GI50 | TGI
NC(CSC(c1ccccc1)(c1ccccc1)c1ccc2c(c1)OCO2)C(=O)O (stereo not drawn) | 0.518 µM | 30.5 µM
O=C(NCCNc1nccc(-c2c(-c3cccc(O)c3)nc3sccn23)n1)c1ccccc1O | 7.67 µM | 28.2 µM
C[C@@H](CS(C)(=O)=O)Nc1ncc2cc(Oc3ccc(F)cc3F)c(=O)n(C)c2n1 | > 25 µM | > 25 µM
CC(C)=CCCc1c(C)ccc2c1C(=O)C(=O)C(C(C)C)=C2 |  | > 22 µM
CCOC(=O)Nc1nc2ccc(OCC)cc2s1 | > 100 µM | > 100 µM
NS(=O)(=O)c1ccccc1C(=O)N/N=C(\c1nc2ccc([N+](=O)[O-])cc2[nH]c1=O)C(O)c1ccc([N+](=O)[O-])cc1 (stereo not drawn) |  | > 100 µM
COC(=O)[C@@H](C)C[C@H](Cc1ccc(F)cc1)NC(=O)c1csc([C@@H](C[C@H](C(C)C)N(C)C(=O)[C@@H](NC(=O)[C@H]2CCCCN2C)C(C)C)OC(C)=O)n1 | 0.00469 µM and 0.0202 µM | 0.111 µM
N#CC(C#N)=c1ccc(=C2NCC3CCCN23)cc1 (stereo not drawn) |  | > 100 µM
COc1ccc2c(c1)C(=O)/C(=C/c1ccc(OCC(=O)Nc3nccs3)cc1)O2 | 7.99 µM | 26.2 µM
O=[N+]([O-])c1cnc(Sc2ccncn2)s1 | 18.6 µM | 33.3 µM
COC(=O)[C@@]12C3=NO[C@]1(C(=O)OC)C(O[Si](C)(C)C(C)(C)C)[C@H]1OC(C)(C)O[C@H]1[C@@H]2C(OCc1ccccc1)CC3 (stereo partly drawn) |  | > 100 µM
COc1c2ccoc2c(/C=C/C=O)c2oc(-c3ccccc3)cc(=O)c12 | 7.44 µM | 40.7 µM

— PubChem BioAssay (NCI)
